This experiment has as its target T1, human GPR4 (Homo sapiens, UniProt P46093).
T1 construct: expressed in transfected cells
Put plainly: Cell-based assay for human GPR4 activity (pH-induced cAMP formation, HTRF). Particulars: HeLa cells stably expressing human GPR4, pH-induced cAMP formation. The procedure: a) Cell-Based Assay for Human GPR4 Activity
HeLa cells stably expressing human GPR4 were established by transfecting the cells with a construct containing the human GPR4 coding sequence. The cells were grown in DMEM/HAM's F12 medium supplemented with 10% fetal calf serum (FCS), 100 u/ml penicillin, 100 μg/ml streptomycin and 400 μg/ml G418 and 10 mM Hepes pH 8.0. pH-induced formation of cAMP was determined using the HTRF technology as provided by CisBio Inc. The cells were seeded in 384-well plates and cultured for 24 hours at 37° C., 5% CO2 before performing the assay. Medium was removed and 10 μl buffer A (HBS, 10 mM Hepes, pH 8, 2 mM IBMX) was added. For compound testing, buffer A with 2× concentrated compounds was used. Cells were incubated for 15 min at room temperature. 10 μl buffer B (HBS, 30 mM Hepes, specific pH) was added to reach the appropriate final pH for stimulation (see below) and incubation was continued for 15 min at room temperature. […] HBS: 130 mM NaCl, 0.9 mM NaH2PO4, 5.4 mM KCl, 0.8 mM MgSO4, CaCl2 1.8 mM, 25 mM glucose, 10-30 mM Hepes. Adjustment of HBS buffers: Bf A Bf B Final stimulation pH (1 volume buffer A+1 volume buffer B)
Compounds were diluted from fresh stock solutions at 10 mM in DMSO to 2 mM and then used for serial dilutions in DMSO.

Structures can show the parent of a compound that is named as a salt.

T1 sequence (P46093 whole entry): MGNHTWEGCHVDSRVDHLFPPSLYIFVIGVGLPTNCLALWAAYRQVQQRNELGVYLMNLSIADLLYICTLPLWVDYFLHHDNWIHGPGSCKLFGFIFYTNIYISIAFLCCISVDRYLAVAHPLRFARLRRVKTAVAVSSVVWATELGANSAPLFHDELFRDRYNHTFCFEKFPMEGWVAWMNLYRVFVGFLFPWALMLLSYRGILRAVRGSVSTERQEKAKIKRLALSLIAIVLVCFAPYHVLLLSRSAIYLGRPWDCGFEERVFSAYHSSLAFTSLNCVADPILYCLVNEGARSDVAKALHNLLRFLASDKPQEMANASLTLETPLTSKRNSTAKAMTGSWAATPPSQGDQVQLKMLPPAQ

For `CCc1nc2c(C)cc(C)nc2n1Cc1ccc(C#CCN2CCN(C(C)C)CC2)cc1` [Example 1, 2-Ethyl-3-{4-[3-(4-isopropyl-piperazin-1-yl)-prop-1-ynyl]-benzyl}-5,7-dimethyl-3H-imidazo[4,5-b]pyridine], the IC50 turned out to be 189 nM. This lies in the sub-micromolar range. As for `CCc1nc2c(C)cc(C)nc2n1Cc1ccc(C#CCN2CCC(N3CCCCC3)CC2)cc1` [Example 2, 1′-{3-[4-(2-Ethyl-5,7-dimethyl-imidazo[4,5-b]pyridin-3-ylmethyl)-phenyl]-prop-2-ynyl}-[1,4′]bipiperidine], the figure is 73 nM; as for `CCc1nc2c(C)cc(C)nc2n1Cc1ccc(C#CCN2CCCC2)cc1` [Example 3, 2-Ethyl-5,7-dimethyl-3-[4-(3-pyrrolidin-1-yl-prop-1-ynyl)-benzyl]-3H-imidazo[4,5-b]pyridine], 584 nM; as for `CCc1nc2c(C)cc(C)nc2n1Cc1ccc(C#CCNCCN2CCCC2)cc1` [Example 4, {3-[4-(2-Ethyl-5,7-dimethyl-imidazo[4,5-b]pyridin-3-ylmethyl)-phenyl]-prop-2-ynyl}-(2-pyrrolidin-1-yl-ethyl)-amine], 704 nM. As for `CCc1nc2c(C)cc(C)nc2n1Cc1ccc(CCN2CCC(N3CCCCC3)CC2)cc1` [Example 5, 1′-{2-[4-(2-Ethyl-5,7-dimethyl-imidazo[4,5-b]pyridin-3-ylmethyl)-phenyl]-ethyl}-[1,4′]bipiperidinyl], the figure is 227 nM; as for `CCc1nc2c(C)cc(C)nc2n1Cc1ccc(CCCN2CCN(C)CC2)cc1` [Example 6, 2-Ethyl-5,7-dimethyl-3-{4-[3-(4-methyl-piperazin-1-yl)-propyl]-benzyl}-3H-imidazo[4,5-b]pyridine dihydrochloride], 395 nM; as for `CCCN1CCN(CCCc2ccc(Cn3c(CC)nc4c(C)cc(C)nc43)cc2)CC1` [Example 7, 2-Ethyl-5,7-dimethyl-3-{4-[3-(4-propyl-piperazin-1-yl)-propyl]-benzyl}-3H-imidazo[4,5-b]pyridine], 39 nM. The same measure for `CCc1nc2c(C)cc(C)nc2n1Cc1ccc(CCCN2CCN(C(C)C)CC2)cc1` [Example 8, 2-Ethyl-3-{4-[3-(4-isopropyl-piperazin-1-yl)-propyl]-benzyl}-5,7-dimethyl-3H-imidazo[4,5-b]pyridine dihydrochloride]: 274 nM; for `CCc1nc2c(C)cc(C)nc2n1Cc1ccc(CCCN2CCN(C3CC3)CC2)cc1` [Example 9, 3-{4-[3-(4-Cyclopropyl-piperazin-1-yl)-propyl]-benzyl}-2-ethyl-5,7-dimethyl-3H-imidazo[4,5-b]pyridine]: 341 nM. `CCCCN1CCN(CCCc2ccc(Cn3c(CC)nc4c(C)cc(C)nc43)cc2)CC1` [Example 10, 3-{4-[3-(4-Butyl-piperazin-1-yl)-propyl]-benzyl}-2-ethyl-5,7-dimethyl-3H-imidazo[4,5-b]pyridine] had an IC50 of 123 nM. The same measure for `CCc1nc2c(C)cc(C)nc2n1Cc1ccc(CCCN2CCN(C(C)CC)CC2)cc1` (stereo not drawn) [Example 11, 3-{4-[3-(4-sec-Butyl-piperazin-1-yl)-propyl]-benzyl}-2-ethyl-5,7-dimethyl-3H-imidazo[4,5-b]pyridine]: 479 nM. The compound `CCc1nc2c(C)cc(C)nc2n1Cc1ccc(CCCN2CCN(C(C)(C)C)CC2)cc1` [Example 12, 3-{4-[3-(4-tert-Butyl-piperazin-1-yl)-propyl]-benzyl}-2-ethyl-5,7-dimethyl-3H-imidazo[4,5-b]pyridine] returned an IC50 of 53 nM. As for `CCCCCN1CCN(CCCc2ccc(Cn3c(CC)nc4c(C)cc(C)nc43)cc2)CC1` [Example 13, 2-Ethyl-5,7-dimethyl-3-{4-[3-(4-pentyl-piperazin-1-yl)-propyl]-benzyl}-3H-imidazo[4,5-b]pyridine], the figure is 662 nM; as for `CCCC(C)N1CCN(CCCc2ccc(Cn3c(CC)nc4c(C)cc(C)nc43)cc2)CC1` (stereo not drawn) [Example 14, 2-Ethyl-5,7-dimethyl-3-(4-{3-[4-(1-methyl-butyl)-piperazin-1-yl]-propyl}-benzyl)-3H-imidazo[4,5-b]pyridine], 217 nM. The same measure for `CCc1nc2c(C)cc(C)nc2n1Cc1ccc(CCCN2CCN(C(CC)CC)CC2)cc1` [Example 15, 2-Ethyl-3-(4-{3-[4-(1-ethyl-propyl)-piperazin-1-yl]-propyl}-benzyl)-5,7-dimethyl-3H-imidazo[4,5-b]pyridine]: 50 nM; for `CCc1nc2c(C)cc(C)nc2n1Cc1ccc(CCCN2CCN(CCC(C)C)CC2)cc1` [Example 16, 2-Ethyl-5,7-dimethyl-3-(4-{3-[4-(3-methyl-butyl)-piperazin-1-yl]-propyl}-benzyl)-3H-imidazo[4,5-b]pyridine]: 283 nM; for `CCc1nc2c(C)cc(C)nc2n1Cc1ccc(CCCN2CCN(CC3CCC3)CC2)cc1` [Example 17, 3-{4-[3-(4-Cyclobutylmethyl-piperazin-1-yl)-propyl]-benzyl}-2-ethyl-5,7-dimethyl-3H-imidazo[4,5-b]pyridine dihydrochloride]: 178 nM. The same measure for `CCc1nc2c(C)cc(C)nc2n1Cc1ccc(CCCN2CCN(C3CCCC3)CC2)cc1` [Example 18, 3-{4-[3-(4-Cyclopentyl-piperazin-1-yl)-propyl]-benzyl}-2-ethyl-5,7-dimethyl-3H-imidazo[4,5-b]pyridine]: 186 nM. `CCc1nc2c(C)cc(C)nc2n1Cc1ccc(CCCN2CCN(C3CCCCC3)CC2)cc1` [Example 19, 3-{4-[3-(4-Cyclohexyl-piperazin-1-yl)-propyl]-benzyl}-2-ethyl-5,7-dimethyl-3H-imidazo[4,5-b]pyridine dihydrochloride] returned a half-inhibitory concentration (IC50) of 182 nM. As for `CCc1nc2c(C)cc(C)nc2n1Cc1ccc(CCCN2CCN(CCOC)CC2)cc1` [Example 20, 2-Ethyl-3-(4-{3-[4-(2-methoxy-ethyl)-piperazin-1-yl]-propyl}-benzyl)-5,7-dimethyl-3H-imidazo[4,5-b]pyridine dihydrochloride], the figure is 953 nM; as for `CCc1nc2c(C)cc(C)nc2n1Cc1ccc(CCCN2CCN(CCN(C)C)CC2)cc1` [Example 21, [2-(4-{3-[4-(2-Ethyl-5,7-dimethyl-imidazo[4,5-b]pyridin-3-ylmethyl)-phenyl]-propyl}-piperazin-1-yl)-ethyl]-dimethyl-amine dihydrochloride], 345 nM; as for `CCc1nc2c(C)cc(C)nc2n1Cc1ccc(CCCN2CCN(CC)C(C)C2)cc1` (stereo not drawn) [Example 22, 2-Ethyl-3-{4-[3-(4-ethyl-3-methyl-piperazin-1-yl)-propyl]-benzyl}-5,7-dimethyl-3H-imidazo[4,5-b]pyridine dihydrochloride], 223 nM. As for `CCc1nc2c(C)cc(C)nc2n1Cc1ccc(CCCN2CCN(C(C)C)C(C)C2)cc1` (stereo not drawn) [Example 23, 2-Ethyl-3-{4-[3-(4-isopropyl-3-methyl-piperazin-1-yl)-propyl]-benzyl}-5,7-dimethyl-3H-imidazo[4,5-b]pyridine], the figure is 253 nM.

`CCc1nc2c(C)cc(C)nc2n1Cc1ccc(CCCN2CCN(C)C[C@@H]2C(C)C)cc1` [Example 24, 2-Ethyl-3-{4-[3-((S)-2-isopropyl-4-methyl-piperazin-1-yl)-propyl]-benzyl}-5,7-dimethyl-3H-imidazo[4,5-b]pyridine dihydrochloride] registered an IC50 of 961 nM. This IC50 lies about 3.8-fold higher than the previous one. The same measure for `CCc1nc2c(C)cc(C)nc2n1Cc1ccc(CCCN2CCN(C(C)C)C(CC)C2)cc1` (stereo not drawn) [Example 25, 2-Ethyl-3-{4-[3-(3-ethyl-4-isopropyl-piperazin-1-yl)-propyl]-benzyl}-5,7-dimethyl-3H-imidazo[4,5-b]pyridine]: 364 nM; for `CCc1nc2c(C)cc(C)nc2n1Cc1ccc(CCCN2C[C@H]3C[C@@H]2CN3CC)cc1` [Example 26, 2-Ethyl-3-{4-[3-((1R,4R)-5-ethyl-2,5-diaza-bicyclo[2.2.1]hept-2-yl)-propyl]-benzyl}-5,7-dimethyl-3H-imidazo[4,5-b]pyridine]: 877 nM.

Consider `CCc1nc2c(C)cc(C)nc2n1Cc1ccc(CCCN2C[C@H]3C[C@@H]2CN3CC(C)C)cc1` [Example 27, 2-Ethyl-3-{4-[3-((1R,4R)-5-isobutyl-2,5-diaza-bicyclo[2.2.1]hept-2-yl)-propyl]-benzyl}-5,7-dimethyl-3H-imidazo[4,5-b]pyridine dihydrochloride], for which the concentration for half-maximal inhibition (IC50) was found to be 411 nM. The same measure for `CCc1nc2c(C)cc(C)nc2n1Cc1ccc(CCCN2C[C@H]3C[C@@H]2CN3CC2CC2)cc1` [Example 28, 3-{4-[3-((1R,4R)-5-Cyclopropylmethyl-2,5-diaza-bicyclo[2.2.1]hept-2-yl)-propyl]-benzyl}-2-ethyl-5,7-dimethyl-3H-imidazo[4,5-b]pyridine]: 436 nM. The same measure for `Cc1cc(C)c2nc(C)n(Cc3ccc(/C=C/CN4CCC(N5CCCCC5)CC4)cc3)c2n1` [Example 30, 1′-{(E)-3-[4-(2,5,7-Trimethyl-imidazo[4,5-b]pyridin-3-ylmethyl)-phenyl]-allyl}-[1,4′]bipiperidinyl]: 94 nM. For `CCc1nc2c(C)cc(C)nc2n1Cc1ccc(/C=C/CN2CCC(N(CC)CC)CC2)cc1` [Example 31, Diethyl-(1-{(E)-3-[4-(2-ethyl-5,7-dimethyl-imidazo[4,5-b]pyridin-3-ylmethyl)-phenyl]-allyl}-piperidin-4-yl)-amine dihydrochloride], inhibition was half-maximal at 144 nM (IC50).

These data come from patent US20090291942A1, “IMIDAZO PYRIDINE DERIVATIVES” (priority 2008, published 2009).
